Measured values taken from patent US8258137B2, “Process for release of biologically active species from mesoporous oxide systems” (Katholieke Universiteit Leuven, priority 2008, dated 2012).
In brackets after ≈: the same amount, converted by molar mass. Read-outs that look alike come from different tables or passages of the source.

Tests used:
Caco-2 cell monolayer = Caco-2 cell monolayer transport; assay type: in vitro ADME
Procedure: As receiver medium for Caco-2 transport experiments, 0.2 wt.-% TPGS (D-α-tocopherol polyethylene glycol 1000 succinate, commercially available from Eastman, Anglesey, England) in transport medium (hereinafter referred to as TM) [HBSS Hanks' Balanced Salt Solution supplemented with glucose to obtain a final concentration of 25 mM, commercially available from Sigma-Aldrich, Steinheim, Germany and Hepes-buffer (10 mM, pH 7.4, N-2-hydroxyethylpiperazine-N′-2-ethanesulfonic acid, commercially available from Lonza, Verviers, Belgium)] was used. To maintain sink conditions, TPGS was included in the medium added to the basolateral side of the Caco-2 cell monolayer.
Caco-2 cells were purchased from Cambrex Biosciences, Walkersville, Md., United States of America. Caco-2 cells were grown in 75 cm^2 culture flasks at 37° C. in an atmosphere of 5% CO2 and 90% relative humidity. Cells were passaged every 3-4 days (at 70-80% confluence) at a split ratio of 1 to 7. Cells were negative for Mycoplasma infection.
For transport experiments, Caco-2 cells were plated at a density of 88,500 cells/insert on Costar® Transwell membrane inserts (3 μm pore diameter, 12 mm diameter; commercially available from Corning Inc., New York). Confluence was reached within 3-4 days after seeding and the monolayers were used for the experiments 18-19 days post-seeding. Cell passages between 50 and 85 were used in the experiments. Transepithelial Electrical Resistance (hereinafter referred as TEER) values were measured with an EndOhm Voltohmmeter (commercially available from WPI, Aston, England). Only monolayers with initial TEER values higher than 200 Ω·cm^2 were used. All volumes amounted to 0.5 mL at the apical side of the monolayer and 1.5 mL at the basolateral side. After rinsing the monolayers 3 times with TM, a pre-incubation step (30 minutes) with TM (control) was performed.
[…] The samples were diluted with methanol (1:1 volume ratio) and itraconazole concentration was determined by HPLC. TEER values were measured again at the end of the experiment and were higher than 95% of the initial value.

[1] = Oral pharmacokinetics in rabbits; assay type: in vivo, New Zealand White rabbits; settings: for Tmax: oral
Procedure: Prior to oral drug administration, the rabbits (n=5) were fasted overnight (>12 hours). After receiving the oral dose, 3 mL of water was administered to facilitate swallowing. After 4 hours, the rabbits had free access to food and water. A wash out period of seven days was allowed between subsequent dose administrations. […] Plasma was then transferred to a fresh Eppendorf tube and frozen at −20° C. prior to analysis.

[2] = Equilibrium solubility of itraconazole in FaSSIF; assay type: physicochemical; settings: thermodynamic from solid; FaSSIF pH 6.5, 37° C., equilibration up to one week
[3] = male, Wistar, rat, in vivo
Procedure: Male Wistar rats of about 350 g were anaesthetized with a ketamin (Anesketin, commercially available from Eurovet, Heusden, Belgium)—xylazin (Xyl-M 2%, commercially available from VMD, Arendonk, Belgium) mixture (87.5 and 8.75 mg/kg respectively). The left jugular vein was cannulated with a heparinized (50 IU·mL^−1) polyethylene cannula (1.02 mm outer diameter; commercially available from Portex, Kent, United Kingdom) for blood supply from a donor rat during the perfusion experiment. A laparotomy was performed and the small intestine was exposed. A segment of the ileum (4-10 cm) was isolated by inserting two glass cannulas (4 mm o.d., 3 mm i.d.) at the proximal and distal end of the segment. Polyethylene tubing (6.5 mm o.d., 3.1 mm i.d.) was connected to the inlet cannula. The intestinal content was removed by perfusing the segment with pre-warmed TM (38° C.) at a flow rate of 3 mL/min. The perfusion pump (Minipuls3, commercially available from Gilson, Middleton, USA) was placed between the reservoir and the inlet cannula. After pre-incubation of the intestine with TM, the mesenteric vein draining the isolated part of the ileum was cannulated using the top end (1 cm) of a catheter (Insyte-W® 0.7×19 mm, commercially available from Beckton Dickinson, Salt Lake City, Utah). […]
Plasma concentrations of itraconazole were determined by HPLC as follows. […]

[4] = Oral pharmacokinetics in dogs; settings: for systemic exposure after oral dosing (HPLC-UV): dogs, oral 20 mg, 4 dogs
Procedure: Details of the dog's experiments were as follows: Marshall Beagle dogs (1.5-3 years of age, 7.1-10.0 kg, male) were housed according to Belgian laws and European regulations for animal experiments, and with free access to water and food. The comparative bioavailability study was performed according to a cross-over design (n=5). After administration of the capsules, 10 mL of water was given to facilitate swallowing. The evaluation of the formulation containing pure crystalline itraconazole was performed with 4 dogs. Blood samples (2.5 mL) were collected from the vena jugularis before dosing and at 0.25, 0.5, 1, 2, 3, 4, 6, 8 hours respectively after dosing. Immediately after blood collection, plasma was harvested by centrifugation at 2,500 g for 10 minutes. Plasma was then transferred to a fresh tube and frozen at −20° C. prior to analysis.
The mobile phase consisted of a methanol/25 mM sodium acetate mixture (78/22 by volume) at pH 3.3.
The maximal plasma concentrations (Cmax) and the time (Tmax) required to reach Cmax were determined from the individual time versus concentration profiles. Systemic exposure was determined by calculating AUC0-24h (rabbits) and AUC0-8h (dogs) using the linear trapezoidal rule. Pharmacokinetic parameters between the three formulations tested were statistically compared with the non-parametric Wilcoxon signed-rank test. The level of significance was set at p<0.03 for comparing two out of three groups.

[5] = background values, cited from earlier work
[6] = J. Voorspoels et al., The Veterinary Record (October 1999); cited from earlier work

Row | SMILES | total transport of itraconazole after 90 minutes (Caco-2 cell monolayer; donor: 10 μM supersaturated condition in FaSSIF (solvent shift)) [µg] | total transport of itraconazole after 90 minutes (Caco-2 cell monolayer; donor: 75 μM supersaturated condition in FaSSIF (solvent shift)) [µg] | total transport of itraconazole after 90 minutes (Caco-2 cell monolayer; donor: saturated itraconazole solution in FaSSIF) [µg] | Tmax ([1]; female, New Zealand White, rabbit, plasma, 8 mg) [h] | Tmax ([1]; female, New Zealand White, rabbit, plasma, 8.4 mg) [h] | AUC(0-t) ([1]; female, New Zealand White, rabbit, plasma, po, 8 mg, single oral capsule dose about 8 mg, n=5, read-out: AUC0-24 h itraconazole) [µM·h] | AUC0-24 h itraconazole ([1]; single oral capsule dose about 8 mg, n=5, listed as crystalline itraconazole) [µM·h] | solubility thermodynamic [2] [µM] | Total transport after 60 minutes [3] [nmol/cm] | Total transport after 60 minutes ([3]; 75 μM) [nmol/cm] | systemic exposure after oral dosing (HPLC-UV) ([4]; listed as crystalline itraconazole) | systemic exposure after oral dosing (HPLC-UV) ([4]; listed as pure crystalline itraconazole) | AUC0-8 h itraconazole ([4]; male, Marshall Beagle, dog, in vivo, po, 20 mg) [µM·h] | water-solubility [5] | water-solubility ([5]; listed as Florfenicol) | oral bioavailability [6]
1 | CCC(C)n1ncn(-c2ccc(N3CCN(c4ccc(OCC5COC(Cn6cncn6)(c6ccc(Cl)cc6Cl)O5)cc4)CC3)cc2)c1=O (centres unmarked) [itraconazole] | 1.2 | 2.2 | 0.09 | 9.8 | 10 | 0.521 | 0.52 | 0.4 (≈ 0.282 µg/mL) | 0.03 | 0.50 | no systemic itraconazole could be detected | no systemic concentrations of itraconazole and its main metabolite hydroxy-itraconazole could be observed | 0 ± 0 | – | – | –
2 | CS(=O)(=O)c1ccc([C@@H](O)[C@@H](CF)NC(=O)C(Cl)Cl)cc1 [florfenicol, D-(threo)-1-p-methylsulfonyl phenyl-2-dichloroacetamido-3-fluoro-1-propanol] | – | – | – | – | – | – | – | – | – | – | – | – | – | 1300 µg/mL | about 1.3 mg/mL | good oral bioavailability
3 | CC(C)(C)c1ccc(C(O)CCCN2CCC(C(O)(c3ccccc3)c3ccccc3)CC2)cc1 (centres unmarked) [terfenadine] | – | – | – | – | – | – | – | – | – | – | – | – | – | less than 0.01 mg/mL | – | –
